{"source": "patent US9738634B2", "about": "“Heterocyclic amide compound and herbicide” (SYNGENTA PARTICIPATIONS AG, priority 2013, dated 2017)", "assay_type_in_all_cases": "in vivo", "key": {"directly sown rice [1]": {"test_system": "directly sown rice", "assay": "Test Example 4: foliar treatment, effect on crop; b: directly sown rice", "conditions": "treatment dosage 315 g/ha", "procedure,_shortened": "(§1)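 Seeds are spot-sown into sterilized diluvial soil and covered with about 1.5 cm of soil. After 14 days' greenhouse growth at 25 to 30° C, plants are sprayed on stems and leaves with diluted emulsion at the stated g/ha rate, then scored at 3 weeks.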"}, "birds-eye speedwell [2]": {"test_system": "birds-eye speedwell", "assay": "Test Example 4: weedkilling efficacy by foliar treatment; p: birds-eye speedwell", "conditions": "treatment dosage 315 g/ha", "procedure,_shortened": "as §1"}, "bulrush [3]": {"test_system": "bulrush", "assay": "Test Example 2: weedkilling efficacy, growth period weed treatment in the submerged state; B: bulrush", "conditions": "treatment dosage 252 g/ha", "procedure,_shortened": "(§2)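 Barnyard grass, bulrush and oval-leafed pondweed sown in alluvial soil under 4 cm flooding, greenhouse 25 to 30° C. At 1-2 leaf stage, water-diluted emulsion applied to the water surface at stated g/ha dosages; effects scored 3 weeks later.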"}, "chickweed [4]": {"test_system": "chickweed", "assay": "Test Example 4: weedkilling efficacy by foliar treatment; N: chickweed", "conditions": "treatment dosage 315 g/ha", "procedure,_shortened": "as §1"}, "chickweed [5]": {"test_system": "chickweed", "assay": "Test Example 3: weedkilling efficacy through soil treatment; N: chickweed", "conditions": "treatment dosage 315 g/ha", "procedure,_shortened": "(§3)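 Crop and weed responses were judged three weeks after a uniform surface spray of the water-diluted emulsion at the given g/ha rate. Seeds sat beneath about 1.5 cm of sterilized diluvial soil, and boxes stood in a greenhouse at 25 to 30° C.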"}, "redroot pigweed [6]": {"test_system": "redroot pigweed", "assay": "Test Example 4: weedkilling efficacy by foliar treatment; L: redroot pigweed", "conditions": "treatment dosage 315 g/ha", "procedure,_shortened": "as §1"}, "directly sown rice [7]": {"test_system": "directly sown rice", "assay": "Test Example 3: soil treatment, effect on crop; b: directly sown rice", "conditions": "treatment dosage 315 g/ha", "procedure,_shortened": "as §3"}, "black-grass [8]": {"test_system": "black-grass", "assay": "Test Example 4: weedkilling efficacy by foliar treatment; H: black-grass", "conditions": "treatment dosage 315 g/ha", "procedure,_shortened": "as §1"}, "black-grass [9]": {"test_system": "black-grass", "assay": "Test Example 3: weedkilling efficacy through soil treatment; H: black-grass", "conditions": "treatment dosage 315 g/ha", "procedure,_shortened": "as §3"}, "Italian ryegrass [10]": {"test_system": "Italian ryegrass", "assay": "Test Example 3: weedkilling efficacy through soil treatment; I: Italian ryegrass", "conditions": "treatment dosage 315 g/ha", "procedure,_shortened": "as §3"}, "catchweed": {"test_system": "catchweed", "assay": "Test Example 4: weedkilling efficacy by foliar treatment; O: catchweed", "conditions": "treatment dosage 315 g/ha", "procedure,_shortened": "as §1"}, "corn [11]": {"test_system": "corn", "assay": "Test Example 4: foliar treatment, effect on crop; c: corn", "conditions": "treatment dosage 315 g/ha", "procedure,_shortened": "as §1"}, "fig-leafed goosefoot [12]": {"test_system": "fig-leafed goosefoot", "assay": "Test Example 3: weedkilling efficacy through soil treatment; M: fig-leafed goosefoot", "conditions": "treatment dosage 315 g/ha", "procedure,_shortened": "as §3"}, "birds-eye speedwell [13]": {"test_system": "birds-eye speedwell", "assay": "Test Example 3: weedkilling efficacy through soil treatment; p: birds-eye speedwell", "conditions": "treatment dosage 315 g/ha", "procedure,_shortened": "as §3"}, "beet [14]": {"test_system": "beet", "assay": "Test Example 3: soil treatment, effect on crop; f: beet", "conditions": "treatment dosage 315 g/ha", "procedure,_shortened": "as §3"}, "barnyard grass [15]": {"test_system": "barnyard grass", "assay": "Test Example 1: weedkilling efficacy, preemergent weed treatment in the submerged state; A: barnyard grass", "conditions": "treatment dosage 252 g/ha", "procedure,_shortened": "(§4)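 Pots of alluvial soil flooded 4 cm deep, sown with barnyard grass, bulrush and oval-leafed pondweed and transplanted with 2.5-leaf rice. Emulsified compound applied to the water surface on sowing day at stated g/ha; greenhouse 25–30 °C, effects assessed 3 weeks after treatment.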"}, "Indian mallow [16]": {"test_system": "Indian mallow", "assay": "Test Example 4: weedkilling efficacy by foliar treatment; K: Indian mallow", "conditions": "treatment dosage 315 g/ha", "procedure,_shortened": "as §1"}, "soybean [17]": {"test_system": "soybean", "assay": "Test Example 4: foliar treatment, effect on crop; d: soybean", "conditions": "treatment dosage 315 g/ha", "procedure,_shortened": "as §1"}, "bulrush [18]": {"test_system": "bulrush", "assay": "Test Example 1: weedkilling efficacy, preemergent weed treatment in the submerged state; B: bulrush", "conditions": "treatment dosage 252 g/ha", "procedure,_shortened": "as §4"}, "redroot pigweed [19]": {"test_system": "redroot pigweed", "assay": "Test Example 3: weedkilling efficacy through soil treatment; L: redroot pigweed", "conditions": "treatment dosage 315 g/ha", "procedure,_shortened": "as §3"}, "wheat [20]": {"test_system": "wheat", "assay": "Test Example 4: foliar treatment, effect on crop; e: wheat", "conditions": "treatment dosage 315 g/ha", "procedure,_shortened": "as §1"}, "green foxtail [21]": {"test_system": "green foxtail", "assay": "Test Example 3: weedkilling efficacy through soil treatment; E: green foxtail", "conditions": "treatment dosage 315 g/ha", "procedure,_shortened": "as §3"}, "oval-leafed pondweed [22]": {"test_system": "oval-leafed pondweed", "assay": "Test Example 2: weedkilling efficacy, growth period weed treatment in the submerged state; C: oval-leafed pondweed", "conditions": "treatment dosage 252 g/ha", "procedure,_shortened": "as §2"}, "beet [23]": {"test_system": "beet", "assay": "Test Example 4: foliar treatment, effect on crop; f: beet", "conditions": "treatment dosage 315 g/ha", "procedure,_shortened": "as §1"}, "fig-leafed goosefoot [24]": {"test_system": "fig-leafed goosefoot", "assay": "Test Example 4: weedkilling efficacy by foliar treatment; M: fig-leafed goosefoot", "conditions": "treatment dosage 315 g/ha", "procedure,_shortened": "as §1"}, "corn [25]": {"test_system": "corn", "assay": "Test Example 3: soil treatment, effect on crop; c: corn", "conditions": "treatment dosage 315 g/ha", "procedure,_shortened": "as §3"}, "wild oat": {"test_system": "wild oat", "assay": "Test Example 3: weedkilling efficacy through soil treatment; G: wild oat", "conditions": "treatment dosage 315 g/ha", "procedure,_shortened": "as §3"}, "barnyard grass [26]": {"test_system": "barnyard grass", "assay": "Test Example 2: weedkilling efficacy, growth period weed treatment in the submerged state; A: barnyard grass", "conditions": "treatment dosage 252 g/ha", "procedure,_shortened": "as §2"}, "soybean [27]": {"test_system": "soybean", "assay": "Test Example 3: soil treatment, effect on crop; d: soybean", "conditions": "treatment dosage 315 g/ha", "procedure,_shortened": "as §3"}, "crabgrass [28]": {"test_system": "crabgrass", "assay": "Test Example 4: weedkilling efficacy by foliar treatment; D: crabgrass", "conditions": "treatment dosage 315 g/ha", "procedure,_shortened": "as §1"}, "crabgrass [29]": {"test_system": "crabgrass", "assay": "Test Example 3: weedkilling efficacy through soil treatment; D: crabgrass", "conditions": "treatment dosage 315 g/ha", "procedure,_shortened": "as §3"}, "wheat [30]": {"test_system": "wheat", "assay": "Test Example 3: soil treatment, effect on crop; e: wheat", "conditions": "treatment dosage 315 g/ha", "procedure,_shortened": "as §3"}, "oval-leafed pondweed [31]": {"test_system": "oval-leafed pondweed", "assay": "Test Example 1: weedkilling efficacy, preemergent weed treatment in the submerged state; C: oval-leafed pondweed", "conditions": "treatment dosage 252 g/ha", "procedure,_shortened": "as §4"}, "green foxtail [32]": {"test_system": "green foxtail", "assay": "Test Example 4: weedkilling efficacy by foliar treatment; E: green foxtail", "conditions": "treatment dosage 315 g/ha", "procedure,_shortened": "as §1"}, "Italian ryegrass [33]": {"test_system": "Italian ryegrass", "assay": "Test Example 4: weedkilling efficacy by foliar treatment; I: Italian ryegrass", "conditions": "treatment dosage 315 g/ha", "procedure,_shortened": "as §1"}, "Indian mallow [34]": {"test_system": "Indian mallow", "assay": "Test Example 3: weedkilling efficacy through soil treatment; K: Indian mallow", "conditions": "treatment dosage 315 g/ha", "procedure,_shortened": "as §3"}, "transplanted rice": {"test_system": "transplanted rice", "assay": "Test Example 1: preemergent weed treatment in the submerged state, effect on crop; a: transplanted rice", "conditions": "treatment dosage 252 g/ha", "procedure,_shortened": "as §4"}}}
{"compound": "CC1=C(c2ccsc2)C(=O)N(C(C)(C)C(=O)Nc2nc(C)ns2)CO1", "note": "[B-1-01]", "values": [{"measurement": "b (directly sown rice) effect on crop grade", "setting": "directly sown rice [1]", "result": "5 (weed kill ratio 90% or more, (practically complete withering))"}, {"measurement": "P (birds-eye speedwell) weedkilling efficacy grade", "setting": "birds-eye speedwell [2]", "result": "4 (weed kill ratio 70% or more, less than 90%)"}, {"measurement": "B (bulrush) weedkilling efficacy grade", "setting": "bulrush [3]", "result": "5 (weed kill ratio 90% or more, (practically complete withering))"}, {"measurement": "N (chickweed) weedkilling efficacy grade", "setting": "chickweed [4]", "result": "4 (weed kill ratio 70% or more, less than 90%)"}, {"measurement": "N (chickweed) weedkilling efficacy grade", "setting": "chickweed [5]", "result": "3 (weed kill ratio 40% or more, less than 70%)"}, {"measurement": "L (redroot pigweed) weedkilling efficacy grade", "setting": "redroot pigweed [6]", "result": "5 (weed kill ratio 90% or more, (practically complete withering))"}, {"measurement": "b (directly sown rice) effect on crop grade", "setting": "directly sown rice [7]", "result": "5 (weed kill ratio 90% or more, (practically complete withering))"}, {"measurement": "H (black-grass) weedkilling efficacy grade", "setting": "black-grass [8]", "result": "5 (weed kill ratio 90% or more, (practically complete withering))"}, {"measurement": "H (black-grass) weedkilling efficacy grade", "setting": "black-grass [9]", "result": "5 (weed kill ratio 90% or more, (practically complete withering))"}, {"measurement": "I (Italian ryegrass) weedkilling efficacy grade", "setting": "Italian ryegrass [10]", "result": "5 (weed kill ratio 90% or more, (practically complete withering))"}, {"measurement": "O (catchweed) weedkilling efficacy grade", "setting": "catchweed", "result": "4 (weed kill ratio 70% or more, less than 90%)"}, {"measurement": "c (corn) effect on crop grade", "setting": "corn [11]", "result": "4 (weed kill ratio 70% or more, less than 90%)"}, {"measurement": "M (fig-leafed goosefoot) weedkilling efficacy grade", "setting": "fig-leafed goosefoot [12]", "result": "5 (weed kill ratio 90% or more, (practically complete withering))"}, {"measurement": "P (birds-eye speedwell) weedkilling efficacy grade", "setting": "birds-eye speedwell [13]", "result": "5 (weed kill ratio 90% or more, (practically complete withering))"}, {"measurement": "f (beet) effect on crop grade", "setting": "beet [14]", "result": "3 (weed kill ratio 40% or more, less than 70%)"}, {"measurement": "A (barnyard grass) weedkilling efficacy grade", "setting": "barnyard grass [15]", "result": "5 (weed kill ratio 90% or more, (practically complete withering))"}, {"measurement": "K (Indian mallow) weedkilling efficacy grade", "setting": "Indian mallow [16]", "result": "4 (weed kill ratio 70% or more, less than 90%)"}, {"measurement": "d (soybean) effect on crop grade", "setting": "soybean [17]", "result": "4 (weed kill ratio 70% or more, less than 90%)"}, {"measurement": "B (bulrush) weedkilling efficacy grade", "setting": "bulrush [18]", "result": "5 (weed kill ratio 90% or more, (practically complete withering))"}, {"measurement": "L (redroot pigweed) weedkilling efficacy grade", "setting": "redroot pigweed [19]", "result": "4 (weed kill ratio 70% or more, less than 90%)"}, {"measurement": "e (wheat) effect on crop grade", "setting": "wheat [20]", "result": "1 (weed kill ratio 5% or more, less than 20%)"}, {"measurement": "E (green foxtail) weedkilling efficacy grade", "setting": "green foxtail [21]", "result": "5 (weed kill ratio 90% or more, (practically complete withering))"}, {"measurement": "C (oval-leafed pondweed) weedkilling efficacy grade", "setting": "oval-leafed pondweed [22]", "result": "5 (weed kill ratio 90% or more, (practically complete withering))"}, {"measurement": "f (beet) effect on crop grade", "setting": "beet [23]", "result": "4 (weed kill ratio 70% or more, less than 90%)"}, {"measurement": "M (fig-leafed goosefoot) weedkilling efficacy grade", "setting": "fig-leafed goosefoot [24]", "result": "5 (weed kill ratio 90% or more, (practically complete withering))"}, {"measurement": "c (corn) effect on crop grade", "setting": "corn [25]", "result": "0 (weed kill ratio 5% or less (practically no effect))"}, {"measurement": "G (wild oat) weedkilling efficacy grade", "setting": "wild oat", "result": "5 (weed kill ratio 90% or more, (practically complete withering))"}, {"measurement": "A (barnyard grass) weedkilling efficacy grade", "setting": "barnyard grass [26]", "result": "5 (weed kill ratio 90% or more, (practically complete withering))"}, {"measurement": "d (soybean) effect on crop grade", "setting": "soybean [27]", "result": "2 (weed kill ratio 20% or more, less than 40%)"}, {"measurement": "D (crabgrass) weedkilling efficacy grade", "setting": "crabgrass [28]", "result": "5 (weed kill ratio 90% or more, (practically complete withering))"}, {"measurement": "D (crabgrass) weedkilling efficacy grade", "setting": "crabgrass [29]", "result": "5 (weed kill ratio 90% or more, (practically complete withering))"}, {"measurement": "e (wheat) effect on crop grade", "setting": "wheat [30]", "result": "4 (weed kill ratio 70% or more, less than 90%)"}, {"measurement": "C (oval-leafed pondweed) weedkilling efficacy grade", "setting": "oval-leafed pondweed [31]", "result": "5 (weed kill ratio 90% or more, (practically complete withering))"}, {"measurement": "E (green foxtail) weedkilling efficacy grade", "setting": "green foxtail [32]", "result": "5 (weed kill ratio 90% or more, (practically complete withering))"}, {"measurement": "I (Italian ryegrass) weedkilling efficacy grade", "setting": "Italian ryegrass [33]", "result": "5 (weed kill ratio 90% or more, (practically complete withering))"}, {"measurement": "K (Indian mallow) weedkilling efficacy grade", "setting": "Indian mallow [34]", "result": "3 (weed kill ratio 40% or more, less than 70%)"}, {"measurement": "a (transplanted rice) effect on crop grade", "setting": "transplanted rice", "result": "4 (weed kill ratio 70% or more, less than 90%)"}]}
